“Also recorded” adds a separate entry of the source.
Key:
[1] = system: peripheral nerve injury sheep model; test: Mechanical hyperalgesia (pin-prick test) after intrathecal morphine in the peripheral nerve injury sheep model; assay type: in vivo
Description: Adult female merino sheep weighing 40-60 kg were used to produce the peripheral nerve injury sheep model. All experimental procedures were approved by the Institutional of Animal Care and Use Committee at the University of Texas Medical Branch and were in accordance with the guidelines of National Institutes of Health and of the International Association for the study of Pain (IASP).
Sheep were fasted for 24 hours prior to surgery. General anesthesia was given followed by 600 mg IM injection of ketamine. An intravenous line was placed in the external jugular and the sheep received an additional 200 mg of ketamine IV and a prophylactic dose of cefazolin 1 g IV. After intubation, the sheep were maintained on 2% isoflurane in oxygen and mechanically ventilated. The sheep received IV fluids (0.9% Normal Saline). Body temperature was maintained with a circulating water pad. Oxygen saturation was monitored and maintained between 98-100%. Heart rate and blood pressure remained within normal limits and required no adjustments. Sheep was positioned prone with hind limbs positioned cephalad beside the abdomen. A positioning pillow was placed under the chest, raising the head and chest and allowing a lordotic curve of the lumbar spine. The sheep was loosely secured to the operating table. The lumbrosacral area was sterilely prepped with betadine and draped. A vertical midline incision was made over the L-6 to S-2 vertebrae. The spinous processes of L6 and S1 were partially resected to allow greater exposure of the dura. A purse string of 7-O nylon was placed in the dura, the dura carefully lifted and nicked. A RACZ epidural catheter (16 Ga×36) catheter with snaplock catheter/syringe adapter was placed into the subarachnoid space and advanced until the 10 cm mark was at the opening of the dura. Once CSF flow through the catheter was confirmed, the dura was pulled close to the catheter with the purse string and the catheter was secured to the muscle fascia. The dura, muscle fascia, and skin were closed. The catheter was looped and secured subcutaneously. The catheter was then tunneled and secured to the skin of the sheep with suture. The sheep was allowed 5 days to recover and was tested for neurologic deficits. Animals with neurologic deficits were sacrificed.
(§1) After the placement of an intrathecal catheter and the documentation of a lack of any neurological deficits, common peroneal nerve injury surgery was performed. As described previously, the sheep was premedicated with intramuscular ketamine, intubated and mechanically ventilated. The sheep was positioned laterally and the hind leg was sterilely prepared and draped. A vertical incision was made mid-thigh. The semimembranous and semitendinous muscle bellies were separated to expose the common peroneal nerve and tibial nerve. The common peroneal nerve was ligated with 2-0 silk suture and cut distally. A 1-cm segment was removed from the distal stump to prevent re-growth. Fascia and skin were closed.
With the sheep in the stanchion, a pin-prick test was performed using a 300 gram von-frey filament. […] The duration of hindlimb withdrawal was recorded^14.
Three weeks after peroneal nerve injury, the analgesic effect of morphine was measured. […]
Baseline withdrawal thresholds to mechanical stimulation were measured prior to morphine administration and at ten-minute intervals post-morphine. The anti-nociceptive effect of morphine time course was determined by measuring the pin-prick frequency every 10-min after intrathecal administration. […]

[2] = system: peripheral nerve injury sheep model; test: Mechanical allodynia (hindlimb withdrawal threshold, von Frey filaments) after intrathecal morphine in the peripheral nerve injury sheep model; assay type: in vivo; conditions: intrathecal morphine sulfate 50 to 1200 micrograms, three weeks after peripheral nerve injury
Description: as §1, with “closed. […]” for “closed.”
Based on the response to the first von-frey stimuli presented the following stimulus was increased if a negative or null response or decreased if there was a positive response. The 50% response threshold was calculated using the formula: 50% g threshold=(10^[x^f^+κδ]/10,000. The 50% withdrawal thresholds to von-frey filaments were used to assess the behavior change. To avoid inter-observer variability, one investigator did the majority of behavioral experiments. Additionally, each sheep did only one behavioral test per day.
Baseline withdrawal thresholds to mechanical stimulation were measured prior to morphine administration and at ten-minute intervals post-morphine. […]

[3] = 200 micrograms intrathecal, measured by pin prick
[4] = intrathecal 2 to 1200 micrograms, three weeks after peroneal nerve injury, 30 minutes after drug delivery

SMILES: CN1CC[C@]23c4c5ccc(O)c4O[C@H]2[C@@H](O)C=C[C@H]3[C@H]1C5 [morphine]
- duration of analgesia [1, 3]: > 120 min
- time of peak analgesia [1, 3]: 30 min
- reduction in efficacy, ipsilateral compared to contralateral dose response curve [1, 4]: approximately 4 fold
- reduction in potency, ipsilateral compared to contralateral dose response curve [1, 4]: approximately 2 fold
- analgesic effect after nerve injury / injured versus contralateral hindlimb (in words) ([1]; intrathecal, ipsilateral (nerve injured) vs contralateral (non-injured) hindlimb): significantly reduced; also recorded: much less analgesia; also recorded: more potency on the contralateral
- hindlimb withdrawal threshold, reversal (contralateral hindlimb) [2]: completely reversed
- increase of hindlimb withdrawal threshold on the ipsilateral hindlimb [2]: 36%

— US8212104B2, “Model of experimentally induced chronic pain and uses thereof” (The Board of Regents of the University of Texas System, priority 2008, dated 2012)
